What was measured:
[1] = Stability in aqueous solution by UV-Vis; format: physicochemical; conditions: hexafluorophosphate buffered DMSO:water 50:50, pH 7.4, after 6 hours
Protocol: S7.1 Stability in Aqueous Solution
Stability studies were performed for the perenosins in aqueous solution using UV-Vis spectroscopy to probe the lifetime of compounds 1d and 2-8 over the course of the transport experiments. The receptors (10 μL, 25 mM) were added to a hexafluorophosphate buffered (100 mM) DMSO:water 50:50 solution (4990 μL) and the pH was adjusted to either 7.2 or 4.6 using hexafluorophosphoric acid. Spectra were collected at 1 minute intervals over a period of 30 minutes.
Figure S50. Absorbance spectra taken over 30 minutes of 1d (25 mM) in a hexafluorophosphate buffered (100 mM) DMSO:water 50:50 mixture. a) pH 7.2 b) pH 4.6 […]
Figure S51. Absorbance spectra taken over 30 minutes of 2 (25 mM) in a hexafluorophosphate […]
The spectra obtained at pH 7.2 for compounds 1d and 2-8 show no notable change in the […]
conditions. However, the spectra obtained at pH 4.6 for compounds 1d and 2-4 show a decreasing peak at ~400 nm corresponding to the perenosins, and an increasing peak at ~300 nm corresponding to the breakdown product (both are marked with an arrow). The change in spectra […]
Spectra were collected periodically over 72 hours to monitor the change in the UV -vis absorbance.
Figure S58. Absorbance spectra taken periodically over 72 hours of 1d (25 mM) in a hexafluorophosphate buffered (100 mM) DMSO:water 50:50 mixture at pH 7.4 […]

[2] = Cationophore coupled KCl efflux ISE assay (valinomycin or monensin); format: biochemical; conditions: perenosins 0.1 mol%, prodigiosin 0.01 mol%, monensin 0.1 mol%, pH 7.2
Protocol: Herein, we employed two recently reported complementary cationophore coupled assays[19] to unambiguously confirm H^+/Cl^− symport facilitated by perenosins is a strictly inseparable process. Briefly, unilamellar vesicles were prepared with an internal solution of KCl (300 mM) and an external solution of K2SO4 (150 mM), buffered to pH 7.2 with potassium phosphate salts (5 mM). The naturally occurring cationophores valinomycin and monensin were either added alone, or in combination with a perenosin and the resulting chloride efflux, driven by a large chloride concentration gradient, was monitored using a chloride ISE. […] In contrast, monensin functions as an electroneutral transporter. […]
Figure S130. […] The final chloride efflux reading was taken a t 9 mins and was used as the 100% chloride efflux value. […]
The lipid stock solution was diluted with the external buffer solution to a standard volume (5 mL), to afford a solution with a lipid concentration of 1 mM. […] The compounds were added as a DMSO solution (0.1 mol% (with respect to lipid), 10 μL) to start the experiment and the resulting chloride efflux was monitored using a chloride selective electrode over 5 minutes. After this time, detergent (50 μL of Triron X-100 (11 w%) in H2O:DMSO (7:1 v/v)) was added to lyse the vesicles and after 7 minutes a final chloride efflux reading was taken. […]

[3] = Stability in vesicles by UV-Vis; format: physicochemical; conditions: POPC lipid solution, 2 hours
Protocol: The spectra obtained over the course of 72 hours for 1d, 2 and 4-8 show similar trends, 3 was not tested because it was unavailable. All spectra show a decrease in the peak at around 400 nm after 6 hours and an increase in the peak at around 300 nm after 72 hours. These changes in spectra […]
72 hours. The absorbance for 6 decreases dramatically for the readings after 6 hours because most […]
S7.2 Stability in Vesicles
Stability studies were performed for the perenosins in vesicles using UV-Vis spectroscopy to probe the lifetime of compounds 1d and 2-8 at pH 7.2 and pH 4.6. Unilamellar vesicles were prepared using previously reported literature procedures7-9. A lipid film of POPC (1-palmitoyl-2-oleoyl-sn-glycero-3-phosphocholine) was prepared from a chloroform solution under reduced pressure and then dried under vacuum for 4 or more hours. The lipid film was rehydrated by vortexing with a solution of phosphate buffered (5 mM) sodium chloride (500 mM). The lipid suspension was then subjected to 9 freeze-thaw cycles and left to rest at room temperature for 30 minutes. After this, the suspension was extruded 25 times through a 400 nm polycarbonate membrane resulting in unilamellar vesicles of a mean diameter of 400 nm. […]
Figure S65. Absorbance spectra taken over 2 hours of 1d (25 mM) in a sodium chloride (500 mM) phosphate buffered (5 mM) lipid solution. a) pH 7.2 b) pH 4.6 […]

Row | Compound | chloride efflux coupled to monensin [2] | also measured
1 | CCCCCc1cc2cc(C)cc(/N=C/c3[nH]c(C)c(CCCCC)c3C)c2[nH]1 [Perenosin 6] |  | solubility during 72 h stability study [1]: poor solubility
2 | CCCCCc1cc2cc(C)cc(/N=C/c3[nH]c4ccccc4c3C)c2[nH]1 [Perenosin 8] | do not facilitate chloride transport | 
3 | CCCCCc1cc(/N=C/c2[nH]c3ccccc3c2C)c2[nH]ccc2c1 [Perenosin 7] | do not facilitate chloride transport | 
4 | CCCCCc1cc(/N=C/c2[nH]c(C)cc2C)c2[nH]ccc2c1 [Perenosin 1d] |  | stability in vesicles at pH 7.2 [3]: stable

Reference: article PMC5570892, “Indole-based perenosins as highly potent HCl transporters and potential anti-cancer agents” (Scientific Reports, 2017)
